A short description of the series: Accelerated stability testing: impurity analysis by reverse phase HPLC. Format: physicochemical. How it is done: Each of the formulations prepared was subjected to accelerated stability testing at 40° C.
The analysis of the impurities was undertaken using reverse phase High Performance Liquid Chromatography (HPLC). HPLC is a technique that is widely used and well known in the art. HPLC can be used to measure the potency of the docetaxel where potency is defined as a percentage of the initial concentration of docetaxel. HPLC can also be used to measure the relative proportions of known and unknown impurities in a docetaxel formulation. Any suitable HPLC method which will separate the impurities may be used.
Impurity levels were calculated by peak area normalisation.

[1] abbreviates: Example 1, one month, accelerated stability 40° C.
The mark [2] stands for this setting: Example 2, one month, accelerated stability 40° C.
Setting [3] is: Example 8, Initial (Docetaxel = docetaxel itself).

SMILES strings stand for the structures.

For the molecule `CC(=O)O[C@@]12CO[C@@H]1C[C@H](O)[C@@]1(C)C(=O)[C@H](O)C3=C(C)[C@@H](OC(=O)[C@H](O)[C@@H](NC(=O)OC(C)(C)C)c4ccccc4)C[C@@](O)([C@@H](OC(=O)c4ccccc4)[C@H]21)C3(C)C` [Docetaxel, (2R,3S)-N-carboxy-3-phenylisoserine,N-tert-butylester, 13 ester with 5β-20-epoxy-1,2α,4,7β,10β,13α-hexahydroxytax-11-en-9-one 4-acetate 2 benzoate], where the note is “Example 1, initial time point”, the “Impurity B (RRT = 0.89)” value came out at 0.08 % peak area, the “Impurity E (RRT = 1.33)” value is on record as 0.07 % peak area, the “Impurity F (RRT = 1.47)” value is 0.10 % peak area and the “Total Impurities” value was found to be 0.25 % peak area. Moreover, under setting [1], the “Impurity B (RRT = 0.89)” value is given as 0.08 % peak area, the “Impurity E (RRT = 1.33)” value came to 0.07 % peak area, the “Impurity F (RRT = 1.47)” value was determined as 0.10 % peak area and the “Total Impurities” value amounted to 0.25 % peak area. In addition, under “Example 2, initial time point”, the “Impurity E (RRT = 1.34)” value came to 0.16 % peak area, the “Impurity F (RRT = 1.48)” value was determined as 0.09 % peak area and the “Total Impurities” value came out at 0.25 % peak area. Moreover, under setting [2], the “Impurity E (RRT = 1.34)” value was found to be 0.16 % peak area, the “Impurity F (RRT = 1.48)” value worked out at 0.09 % peak area and the “Total Impurities” value was found to be 0.25 % peak area. Moreover, under setting [3], the “Impurity RRT 0.866” value came to 0.05 % peak area, the “Impurity RRT 1.821” value was determined as 0.08 % peak area and the Total impurity worked out at 0.13 % peak area.
